Assay results as given in US7317030B2, “Compounds as inhibitors of cell proliferation and viral infections” (4SC AG, priority 2004, dated 2008).

molecular target: T1, Kv1.3 channels (Mus musculus, UniProt P16390); test: Kv1.3 assay, whole-cell patch-clamp in stably transfected L929 cells; assay type: cell-based; conditions: c=20 μM, two cells per compound
T1 construct: expressed in transfected cells; host or cells: L929 cells, stably transfected
Method: The inhibition of Kv1.3 was measured in stable transfected cell lines expressing mouse Kv1.3 using the patch-clamp technique (Rauer H et al. J Biol Chem Vol. 275, No. 2, 1201-1208, 2000), Rauer H Mol Pharmacol, 50, 1625-1634, 1996, Rauer H et al. J Pharmacol, 127, 1065-1074, 1999).
Stable transfected L929 cells with Kv1.3 channels were grown in DMEM (Glutamax-I) media with 10% FCS, geneticin 330 μg/ml under 10% CO2 atmosphere.
Whole-cell patch-clamp configuration, with an external bath solution of 160 mM NaCl, 4, 5 mM KCl, 1 mM MgCl, 2 mM CaCl2, 5 mM HEPES, 10 mM EGTA and NaOH adjusted to pH 7.4. Internal pipette solution for recording was 155 mM KF, 2 mM MgCl2, 10 mM HEPES, 10 mM EGTA with KOH adjusted to pH 7.2. Currents were activated by a 200-ms voltage step from a holding potential of −80 to 40 mV every 30 s. Holding potential −80 mV.
Each compound was tested on two different cells. The cell was perfused with external bath solution (black line), then the compound was applied (c=20 μM). The resulting stedy-state current traces are shown as red lines. Example 3, 5, 6, 7, 8 are blockers.

T1 sequence (P16390 whole entry): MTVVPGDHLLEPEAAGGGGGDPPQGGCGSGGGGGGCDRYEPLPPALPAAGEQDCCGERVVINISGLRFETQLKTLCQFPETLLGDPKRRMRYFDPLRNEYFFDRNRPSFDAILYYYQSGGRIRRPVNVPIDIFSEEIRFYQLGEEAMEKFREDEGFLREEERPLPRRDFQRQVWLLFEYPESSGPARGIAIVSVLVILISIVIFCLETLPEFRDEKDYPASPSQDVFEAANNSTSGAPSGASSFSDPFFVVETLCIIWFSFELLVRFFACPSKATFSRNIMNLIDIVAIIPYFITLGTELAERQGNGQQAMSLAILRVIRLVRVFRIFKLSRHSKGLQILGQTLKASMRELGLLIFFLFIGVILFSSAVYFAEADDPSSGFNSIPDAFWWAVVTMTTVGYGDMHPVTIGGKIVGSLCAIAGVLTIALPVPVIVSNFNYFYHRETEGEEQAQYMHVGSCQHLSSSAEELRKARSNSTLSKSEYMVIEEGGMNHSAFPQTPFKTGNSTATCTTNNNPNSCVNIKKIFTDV

Kv1.3 channel block | Compound
blockers | O=C(Nc1cccc(C2=N[C@@H](Cc3ccccc3)CO2)c1)Nc1cccc(C(F)(F)F)c1 [Example 8, 1-[3-(4-(S)-Benzyl-4,5-dihydro-oxazol-2-yl)-phenyl]-3-(3-trifluoromethyl-phenyl)-urea]
blockers | O=C(Nc1cccc(C2=N[C@H](Cc3ccccc3)CO2)c1)Nc1cccc(C(F)(F)F)c1 [Example 7, 1-[3-(4-(R)-Benzyl-4,5-dihydro-oxazol-2-yl)-phenyl]-3-(3-trifluoromethyl-phenyl)-urea]
blockers | O=C(Nc1cccc(C2=N[C@@H](c3ccccc3)CO2)c1)Nc1cccc(C(F)(F)F)c1 [Example 6, 1-[3-(4-(S)-Phenyl-4,5-dihydro-oxazol-2-yl)-phenyl]-3-(3-trifluoromethyl-phenyl)-urea]

Second part, the compound before the results:

Compound | Kv1.3 channel block
O=C(Nc1cccc(C2=N[C@H](c3ccccc3)CO2)c1)Nc1cccc(C(F)(F)F)c1 [Example 5, 1-[3-(4-(R)-Phenyl-4,5-dihydro-oxazol-2-yl)-phenyl]-3-(3-trifluoromethyl-phenyl)-urea] | blockers
O=C(Nc1ccc(C2=N[C@H](Cc3ccccc3)CO2)cc1)Nc1ccc(S(=O)(=O)NCc2cc(F)c(F)c(F)c2)cc1 [Example 3, 4-{3-[4-(4-(R)-Benzyl-4,5-dihydro-oxazol-2-yl)-phenyl]-ureido}-N-(3,4,5-trifluoro-benzyl)-benzenesulfonamide] | blockers

molecular target: IMPDH; test: IMPDH enzyme assay (NADH release at 340 nm); assay type: biochemical, human; conditions: 0.2 mM IMP, 0.4 mM NAD, 37° C.
Method: IMPDH Enzyme-Assay: For measuring IMPDH activity in vitro, the substrate inosine monophosphate (IMP) and enzyme, with or without inhibitor, are mixed together. […] The released NADH is measured at 340 nm. The assay is performed in PMMA half micro liter cuvettes, the total assay volume is 1 mL. 500 μl of 2× assay buffer (200 mM Tris/HCl, pH 8.0, 200 mM KCl, 6 mM EDTA and 4 mM DTT) are mixed with 10 μL of a freshly prepared 20 mM IMP solution (0.2 mM final concentration) and 10 μL of enzyme (0.03 U/mL). An appropriate amount of inhibitor is dissolved in 100% DMSO. 10 μL of this solution are added to the assay mix (1% DMSO final concentration). Finally 455 μL of deionized water are added to give the final volume of 1 mL. The mixture is incubated for 10 min at 37° C. The enzyme reaction is started by addition of 25 μL of a 16 mM NAD solution (0.4 mM final concentration). Reaction is followed for 30 min at 37° C. at 340 nm. The enzyme reaction runs linear with respect to time during the 30 min. The slopes of the resulting curves are calculated and results are presented in % of residual activity, which is calculated as % activity=(slope with inhibitor/slope without inhibitor) *100. For the determination of the IC50 values (concentration of inhibitor required for 50% inhibition) at least four different inhibitor concentrations were applied. Each data point was recorded in triplicates. […]

IC50 | Compound
< 5 µM | COc1cc(NC(=O)Nc2ccc(S(=O)(=O)N3CCOCC3)cc2)ccc1C#N [Example 15, 1-(4-Cyano-3-methoxy-phenyl)-3-[4-(morpholine-4-sulfonyl)-phenyl]-urea]
